Results from PubChem BioAssay AID1408 (University of Pittsburgh Molecular Library Screening Center, 2008).

What follows are compounds tested against Serine/threonine-protein kinase D1 (Homo sapiens) (UniProt Q15139) (assay: PKD1 kinase inhibitors, IC50 values, dose response, biochemical, fluorescence polarization (AID 1408)). Conditions: not given.
Sequence of Serine/threonine-protein kinase D1 (Homo sapiens) (Q15139 whole entry, looked up): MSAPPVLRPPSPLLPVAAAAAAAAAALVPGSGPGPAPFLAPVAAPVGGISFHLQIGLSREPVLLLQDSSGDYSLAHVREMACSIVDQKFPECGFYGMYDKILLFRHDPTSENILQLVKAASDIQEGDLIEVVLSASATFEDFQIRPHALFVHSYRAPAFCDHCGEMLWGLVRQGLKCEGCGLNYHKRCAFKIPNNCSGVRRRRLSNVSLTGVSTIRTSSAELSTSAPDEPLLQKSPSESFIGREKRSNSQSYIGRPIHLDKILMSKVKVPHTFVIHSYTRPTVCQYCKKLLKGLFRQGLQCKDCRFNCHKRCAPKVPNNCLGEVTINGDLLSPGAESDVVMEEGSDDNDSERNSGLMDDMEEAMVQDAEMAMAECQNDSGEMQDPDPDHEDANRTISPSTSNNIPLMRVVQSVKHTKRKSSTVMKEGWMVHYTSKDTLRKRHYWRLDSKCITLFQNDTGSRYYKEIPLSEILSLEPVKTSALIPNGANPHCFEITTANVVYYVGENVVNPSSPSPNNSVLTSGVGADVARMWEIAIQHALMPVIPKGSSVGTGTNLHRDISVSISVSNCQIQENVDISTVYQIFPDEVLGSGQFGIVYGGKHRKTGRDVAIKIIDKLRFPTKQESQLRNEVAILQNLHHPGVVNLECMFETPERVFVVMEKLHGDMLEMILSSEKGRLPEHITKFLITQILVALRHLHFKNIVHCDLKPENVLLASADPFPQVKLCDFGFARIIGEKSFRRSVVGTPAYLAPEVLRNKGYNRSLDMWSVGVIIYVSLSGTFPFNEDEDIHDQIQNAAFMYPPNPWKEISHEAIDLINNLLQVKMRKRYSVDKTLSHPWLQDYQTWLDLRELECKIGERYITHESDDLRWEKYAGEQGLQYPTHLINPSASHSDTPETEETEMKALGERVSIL

SMILES	IC50
Clc1cncc(Cl)c1N/N=C/c1ccncc1	9.61 µM
C/C(=N\Nc1ncc(Cl)cc1Cl)c1ccccn1	9.31 µM

Same assay, conditions: inhibition, at 50 µM, stronger effect = higher value

SMILES	inhibition
CS(=O)(=O)N1CCN(c2ccccc2NC(=O)c2ccc(Br)o2)CC1	15.2%
COc1ccc(CNC(=O)C2Cc3ccccc3CN2C(=O)c2ccco2)cc1 (stereo unspecified)	9.09%
O=C(NNC1=Nc2cccc3cccc1c23)c1ccc(Br)cc1	-3.67%
Cc1c(C#N)c(N)nc(Cl)c1C#N	5.41%
COc1ccc(Cn2c(=O)[nH]c3cc(C(=O)NC4CCCC4)ccc3c2=O)cc1	14.8%
CCCc1cc(=O)[nH]c(SCCCCN2C(=O)c3ccccc3C2=O)n1	0.534%
CCOC(=O)c1sc(=NC(=O)CCS(=O)(=O)c2ccccc2)n(C)c1C	-2.41%
Cc1cc(NC(=O)CCC(=O)N(Cc2ccco2)C(C(=O)NCC2CCCO2)c2ccncc2)no1 (stereo unspecified)	-0.875%
NC(N)=NC(=O)c1nc(Cl)c(N)nc1N	96.6%
Cn1cccc1C(=O)NC(=O)COC(=O)c1cc(S(=O)(=O)N2CCCCC2)ccc1Cl	-3.91%
O=C(CSc1ccncc1)Nc1ccc2ccccc2c1	-4.61%
CCC1=NNc2cccc3c(OC)ccc1c23	67%
CC(=O)Oc1cc(OC(C)=O)c2c(C)cc(=O)oc2c1	29%
O=C(Nc1ccc(CN2CCOCC2)cc1)c1ccc(-c2cccc(Cl)c2)o1	96.2%
CSc1ccccc1C(=O)NCc1ccc(F)cc1	1.94%
Clc1cncc(Cl)c1N/N=C/c1ccncc1	83.8%
CCC(=O)Nc1c2c(nn1-c1ccccc1C)CSC2	-1.23%
O=[N+]([O-])c1ccc(Nc2c3ccccc3nc3ccccc23)cc1	-1.2%
O=C1CSCN1c1cc(Cl)ccc1Cl	1.32%
C/C(=N\Nc1ncc(Cl)cc1Cl)c1ccccn1	65.6%
O=C(O)c1cc(C(=O)C2CCCCC2)c[nH]1	3.08%
NC(=O)c1cn(C2OC(CO)C(O)C2O)c2ncnc(N)c12 (stereo unspecified)	102%
O=C1NCCCc2c1oc1ccc(O)cc21	101%
COC(=O)c1c(NC(=O)C2C3CCC(C3)C2C(=O)O)sc2c1CCCCC2 (stereo unspecified)	7.89%
CC1Cc2ccccc2N1c1ncnc(N)c1[N+](=O)[O-] (stereo unspecified)	76.8%
Nc1nc2ccc([N+](=O)[O-])c(N)c2s1	95.9%
O=C(Nc1ccccc1C(=O)N1CCCC1)C1COc2ccccc2O1 (stereo unspecified)	1.87%
O=C(CSc1ccc2nnc(-c3cccnc3)n2n1)c1ccccc1	-0.442%
Cc1cc(NCCCN)nc(-c2ccccc2O)n1	94.4%
